Laboratory results as given in patent US20190307843A1, “SINGLE DOSE METHODS FOR PREVENTING AND TREATING FUNGAL INFECTIONS” (Cidara Therapeutics, Inc., priority 2016, published 2019).
Values joined by “and” are separate entries in the source; they are usually repeats but may differ in a detail not shown here. Equal entries are not always repeated. Starred links: 1 amine or outer side, 2 acyl side, 3 side chain; linkers in the order of their positions; H or OH if unused. Positions of bridges follow the written chain, without caps; N, C: chain ends. Non-standard residues stand in square brackets, D forms with d. Residues, ends and D or L forms follow the SMILES beside them. *: point of attachment. hTyr(3S-OH,4S-OH,3'-OSO3H) = N[C@H](C(=O)O)[C@H](O)[C@@H](O)c1ccc(O)c(OS(=O)(=O)O)c1; Orn(4R-OH,5R-OH) = O=C([C@H](C[C@@H](O)[C@@H](O)N[*:3])N[*:1])[*:2]; Pro(3S-OH,4S-Me) = C[C@H]1CN[C@H](C(=O)O)[C@H]1O; X1 = CCCCCOc1ccc(-c2cc(-c3ccc(C(=O)*)cc3)no2)cc1; Gln(3R-OH) = NC(=O)C[C@@H](O)[C@H](N)C(=O)O; Hyp = O=C(O)[C@@H]1C[C@@H](O)CN1

Assays:
C. albicans strain 529L = test: Rat model of vulvovaginal candidiasis, vaginal lavage and tissue burden; format: in vivo, Candida albicans
C. auris = test: Murine model of disseminated candidiasis, C. auris infection, kidney CFU and survival; format: in vivo, Candida auris
A. fumigatus AF293 [1] = test: Murine model of pulmonary aspergillosis (Example 19), survival
[2] = system: A. fumigatus strain AF293; test: Murine model of pulmonary aspergillosis (Example 13), survival
A. fumigatus AF293 [3] = test: Pulmonary aspergillosis, prophylaxis, neutropenic ICR mice (Examples 17, 18), survival; format: in vivo, Aspergillus fumigatus; details: micafungin 5 mg/kg
Protocol: Intranasal infection with A. fumigatus AF293 (10^5 CFU/mouse) on Day 0. Prophylaxis CD101 as a single dose (IP; 5, 10, 20 mg/kg) or posaconazole (PO; 2 and 10 mg/kg) 1 day prior to infection. Survival monitored for 10 days.
Intranasal challenge with A. fumigatus AF293 (10^5 CFU/mouse) was initiated on Day 0 and prophylaxis with CD101 as a single dose (IP; 5, 10, 20 mg/kg) or posaconazole (PO; 2 and 10 mg/kg) was started 1 day prior to infection. Survival was monitored for 10 days.

A. fumigatus AF293 [4] = test: Murine model of pulmonary aspergillosis (Example 19), terminal lung burden; format: in vivo, Aspergillus fumigatus; details: Micafungin 5 mg/kg IP Day −1
Protocol: A secondary endpoint for the study was terminal lung tissue burden. Immediately following confirmation of death, carcasses were frozen at −20° C. prior to tissue dissection and processing. The frozen carcasses were thawed at room temperature, the lungs removed and placed into pre-weighed bead-beating tubes containing 2 mL of PBS and subjected to mechanical disruption. Organ homogenates were diluted further in PBS and quantitatively cultured for A. fumigatus onto SABC and incubated at 30° C. for 24-48 hours.
2. Lung tissue burden data were analysed using the non-parametric Kruskal-Wallis test and if this was statistically significant all pairwise comparisons were analyzed (Conover-Inman).

[5] = 20 mg/kg PO Dosed Once, lavage Day 1 post infection, pre-treatment
[6] = 20 mg/kg PO Dosed Once, lavage Day 2 post infection
[7] = 20 mg/kg PO Dosed Once, lavage Day 3 post infection
[8] = 20 mg/kg PO Dosed Once, lavage Day 5 post infection
[9] = 20 mg/kg PO Dosed Once, lavage Day 7 post infection
[10] = 20 mg/kg PO Dosed Once, lavage Day 9 post infection
[11] = 20 mg/kg PO Dosed Once, terminal vaginal tissue Day +9 post infection
[12] = 20 mg/kg PO Dosed Twice, lavage Day 1 post infection, pre-treatment
[13] = 20 mg/kg PO Dosed Twice, lavage Day 2 post infection
[14] = 20 mg/kg PO Dosed Twice, lavage Day 3 post infection
[15] = 20 mg/kg PO Dosed Twice, lavage Day 5 post infection
[16] = 20 mg/kg PO Dosed Twice, lavage Day 7 post infection
[17] = 20 mg/kg PO Dosed Twice, lavage Day 9 post infection
[18] = 20 mg/kg PO Dosed Twice, terminal vaginal tissue Day +9 post infection
[19] = Micafungin 5 mg/kg IP once, Day 1 pre-infection

OC(Cn1cncn1)(Cn1cncn1)c1ccc(F)cc1F [fluconazole]
Group Geometric mean (C. albicans strain 529L; [5]): 3.16 × 10^3 CFU/mL | Log Group Geometric mean (C. albicans strain 529L; [5]): 3.50 CFU/mL | Log reduction from vehicle control (C. albicans strain 529L; [5]): −1.06 CFU/mL | Group Geometric mean (C. albicans strain 529L; [6]): 1.50 × 10^2 CFU/mL | Log Group Geometric mean (C. albicans strain 529L; [6]): 2.18 CFU/mL | Log reduction from vehicle control (C. albicans strain 529L; [6]): 1.52 CFU/mL | Group Geometric mean (C. albicans strain 529L; [7]): 1.00 CFU/mL | Log Group Geometric mean (C. albicans strain 529L; [7]): 0.00 CFU/mL | Log reduction from vehicle control (C. albicans strain 529L; [7]): 3.57 CFU/mL | Group Geometric mean (C. albicans strain 529L; [8]): 1.00 CFU/mL | Log Group Geometric mean (C. albicans strain 529L; [8]): 0.00 CFU/mL | Log reduction from vehicle control (C. albicans strain 529L; [8]): 4.22 CFU/mL | Group Geometric mean (C. albicans strain 529L; [9]): 1.00 CFU/mL | Log Group Geometric mean (C. albicans strain 529L; [9]): 0.00 CFU/mL | Log reduction from vehicle control (C. albicans strain 529L; [9]): 4.18 CFU/mL | Group Geometric mean (C. albicans strain 529L; [10]): 1.00 CFU/mL | Log Group Geometric mean (C. albicans strain 529L; [10]): 0.00 CFU/mL | Log reduction from vehicle control (C. albicans strain 529L; [10]): 4.30 CFU/mL | Group Geometric mean (C. albicans strain 529L; [11]): 1.00 CFU/g | Log Group Geometric mean (C. albicans strain 529L; [11]): 0.00 CFU/g | Log reduction from vehicle control (C. albicans strain 529L; [11]): 5.49 CFU/g | Group Geometric mean (C. albicans strain 529L; [12]): 1.04 × 10^3 CFU/mL | Log Group Geometric mean (C. albicans strain 529L; [12]): 3.02 CFU/mL | Log reduction from vehicle control (C. albicans strain 529L; [12]): −0.58 CFU/mL | Group Geometric mean (C. albicans strain 529L; [13]): 1.27 × 10^2 CFU/mL | Log Group Geometric mean (C. albicans strain 529L; [13]): 2.10 CFU/mL | Log reduction from vehicle control (C. albicans strain 529L; [13]): 1.59 CFU/mL | Group Geometric mean (C. albicans strain 529L; [14]): 1.49 CFU/mL | Log Group Geometric mean (C. albicans strain 529L; [14]): 0.17 CFU/mL | Log reduction from vehicle control (C. albicans strain 529L; [14]): 3.40 CFU/mL | Group Geometric mean (C. albicans strain 529L; [15]): 1.00 CFU/mL | Log Group Geometric mean (C. albicans strain 529L; [15]): 0.00 CFU/mL | Log reduction from vehicle control (C. albicans strain 529L; [15]): 4.22 CFU/mL | Group Geometric mean (C. albicans strain 529L; [16]): 1.00 CFU/mL | Log Group Geometric mean (C. albicans strain 529L; [16]): 0.00 CFU/mL | Log reduction from vehicle control (C. albicans strain 529L; [16]): 4.18 CFU/mL | Group Geometric mean (C. albicans strain 529L; [17]): 1.00 CFU/mL | Log Group Geometric mean (C. albicans strain 529L; [17]): 0.00 CFU/mL | Log reduction from vehicle control (C. albicans strain 529L; [17]): 4.30 CFU/mL | Group Geometric mean (C. albicans strain 529L; [18]): 1.00 CFU/g | Log Group Geometric mean (C. albicans strain 529L; [18]): 0.00 CFU/g | Log reduction from vehicle control (C. albicans strain 529L; [18]): 5.49 CFU/g | rats having burden below the limit of detection (C. albicans strain 529L; fluconazole 20 mg/kg PO once or twice, lavage Day 3 post infection): 11/12 | reduction in burden (C. albicans strain 529L; fluconazole 20 mg/kg PO, lavage Day 2 post infection): about 1.6 Log10 CFU/mL | lavage burden (C. albicans strain 529L; fluconazole once or twice, all rats, Day 5 post infection): below the limit of detection | terminal vaginal tissue burden (C. albicans strain 529L; fluconazole once or twice, all rats, Day 9): below the limit of detection | percent survival at the end of the study (C. auris): 0%

CCCCCOc1ccc(-c2cc(-c3ccc(C(=O)N[C@H]4C[C@@H](O)[C@@H](O)NC(=O)[C@@H]5[C@@H](O)[C@@H](C)CN5C(=O)[C@H]([C@H](O)CC(N)=O)NC(=O)[C@H]([C@H](O)[C@@H](O)c5ccc(O)c(OS(=O)(=O)O)c5)NC(=O)[C@@H]5C[C@@H](O)CN5C(=O)[C@H]([C@@H](C)O)NC4=O)cc3)no2)cc1 [Micafungin, micafungin] (X1-[Orn(4R-OH,5R-OH)]T[Hyp][hTyr(3S-OH,4S-OH,3'-OSO3H)][Gln(3R-OH)][Pro(3S-OH,4S-Me)]; lactam 1-C)
survival time post infection, range (A. fumigatus AF293 [1]; Micafungin 5 mg/kg IP once): 71 to 162 h | Mean Survival (A. fumigatus AF293 [1]; [19]): 92 h and 92.0 h | Median Survival (A. fumigatus AF293 [1]; [19]): 80 h and 80.0 h | survival (A. fumigatus AF293 [1]; micafungin 5 mg/kg once one day pre-infection): did not show any improvement in survival | Mean Survival ([2]; Micafungin 2 mg/kg IP Day 0): 75.3 h | Median Survival ([2]; Micafungin 2 mg/kg IP Day 0): 73.3 h | Mean Survival ([2]; Micafungin 2 mg/kg IP Day −1): 64.7 h | Median Survival ([2]; Micafungin 2 mg/kg IP Day −1): 64.7 h | survival (A. fumigatus AF293 [3]): no survivors | Group Geometric mean (lung burden) (A. fumigatus AF293 [4]): 6.61 × 10^3 CFU/g | Log10 Group Geometric mean (lung burden) (A. fumigatus AF293 [4]): 3.82 CFU/g | Log10 reduction from vehicle control (A. fumigatus AF293 [4]): 0.35 CFU/g
